Each structure is given as a SMILES string.

By IC50 is commonly meant the concentration that inhibits the measured activity by half.

The target in this experiment is T1, recombinant full-length human prolyl endopeptidase (PREP) (Homo sapiens, UniProt P48147).
T1 construct: To recombinant full-length human prolyl endopeptidase (PREP, R&D-Systems, 4308-SE); purchased R&D-Systems 4308-SE
T1 sequence (P48147 1-710): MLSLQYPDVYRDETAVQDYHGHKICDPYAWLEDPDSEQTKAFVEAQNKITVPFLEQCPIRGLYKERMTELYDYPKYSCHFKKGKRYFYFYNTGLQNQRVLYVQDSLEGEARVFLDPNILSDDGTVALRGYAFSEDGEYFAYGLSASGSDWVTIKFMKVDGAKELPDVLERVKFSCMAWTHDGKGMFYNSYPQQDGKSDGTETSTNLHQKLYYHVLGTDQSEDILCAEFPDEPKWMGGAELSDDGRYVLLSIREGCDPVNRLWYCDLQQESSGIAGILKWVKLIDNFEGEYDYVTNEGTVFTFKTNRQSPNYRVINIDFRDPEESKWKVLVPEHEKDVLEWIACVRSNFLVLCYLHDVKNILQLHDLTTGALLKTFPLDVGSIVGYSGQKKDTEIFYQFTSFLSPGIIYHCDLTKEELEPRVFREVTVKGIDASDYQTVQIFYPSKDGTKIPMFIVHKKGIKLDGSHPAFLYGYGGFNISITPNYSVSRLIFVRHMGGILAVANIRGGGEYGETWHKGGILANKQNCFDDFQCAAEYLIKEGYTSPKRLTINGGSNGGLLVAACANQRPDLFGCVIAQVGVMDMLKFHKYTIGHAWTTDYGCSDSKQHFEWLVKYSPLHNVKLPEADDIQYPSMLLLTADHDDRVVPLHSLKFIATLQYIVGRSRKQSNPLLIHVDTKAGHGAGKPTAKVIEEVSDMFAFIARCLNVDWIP
The experiment in a line: Biochemical human prolyl endopeptidase (PREP) assay with fluorescently labelled substrate. The settings on record: substrate Z-Gly-Pro-AMC 50 μM, 32° C., 60 min; some as mean values from multiple independent determinations. In outline: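 Initial rates of fluorescence increase from 50 μM Z-Gly-Pro-AMC cleavage (ex 360/em 465 nm, 60 min, 32° C) give percent PREP activity versus no-compound control, and IC50 is interpolated. Enzyme used at 0.4 nM (final, example) in Tris pH 7.5 with EDTA, GSH, BSA and Brij-35; compounds span 1 nM to 30 μM.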
Consider `O=C(C1CC(C(F)(F)F)Cc2nn(Cc3ccc(Cl)nc3)c(=O)n21)N1CC[C@H](F)C1` (mixture of isomers) [Example 241, (5RS,7RS)-2-[(6-Chloropyridin-3-yl)methyl]-5-{[(3S)-3-fluoropyrrolidin-1-yl]carbonyl}-7-(trifluoromethyl)-5,6,7,8-tetrahydro[1,2,4]triazolo[4,3-a]pyridin-3(2H)-one], for which the IC50 came out at 5.8 nM.

Consider `O=C(C1CC(C(F)(F)F)Cc2nn(Cc3ccc(Cl)nc3)c(=O)n21)N1CC[C@H](F)C1` (mixture of isomers) [Example 242, (5RS,7RS)-2-[(6-Chloropyridin-3-yl)methyl]-5-{[(3S)-3-fluoropyrrolidin-1-yl]carbonyl}-7-(trifluoromethyl)-5,6,7,8-tetrahydro[1,2,4]triazolo[4,3-a]pyridin-3(2H)-one], for which the IC50 is 2 nM.

For `O=C(C1CC(C(F)(F)F)Cc2nn(Cc3ccc(Cl)nc3)c(=O)n21)N1CC[C@@H](F)C1` (mixture of isomers) [Example 245, (5RS,7RS)-2-[(6-Chloropyridin-3-yl)methyl]-5-{[(3R)-3-fluoropyrrolidin-1-yl]carbonyl}-7-(trifluoromethyl)-5,6,7,8-tetrahydro[1,2,4]triazolo[4,3-a]pyridin-3(2H)-one], the IC50 was 6.9 nM.

For `O=C(C1CC(C(F)(F)F)Cc2nn(Cc3ccnc(C(F)(F)F)c3F)c(=O)n21)N1CCC(F)(F)C1` (racemic) [Example 251, (5RS,7RS)-5-[(3,3-Difluoropyrrolidin-1-yl)carbonyl]-2-{[3-fluoro-2-(trifluoromethyl)pyridin-4-yl]methyl}-7-(trifluoromethyl)-5,6,7,8-tetrahydro[1,2,4]triazolo[4,3-a]pyridin-3(2H)-one], the IC50 came to 3.4 nM.

In the case of `O=C(C1CC(C(F)(F)F)Cc2nn(Cc3ccnc(C(F)(F)F)c3F)c(=O)n21)N1CC[C@H](F)C1` (mixture of isomers) [Example 256, (5RS,7RS)-5-{[(3S)-3-Fluoropyrrolidin-1-yl]carbonyl}-2-{[3-fluoro-2-(trifluoromethyl)pyridin-4-yl]methyl}-7-(trifluoromethyl)-5,6,7,8-tetrahydro[1,2,4]triazolo[4,3-a]pyridin-3(2H)-one], the IC50 worked out at 1.7 nM.

As to `O=C(C1CC(C(F)(F)F)Cc2nn(Cc3ncc(Cl)cc3F)c(=O)n21)N1CC[C@H](F)C1` (mixture of isomers) [Example 263, (5RS,7RS)-2-[(5-Chloro-3-fluoropyridin-3-yl)methyl]-5-{[(3S)-3-fluoropyrrolidin-1-yl]carbonyl}-7-(trifluoromethyl)-5,6,7,8-tetrahydro[1,2,4]triazolo[4,3-a]pyridin-3(2H)-one], the IC50 turned out to be 2.8 nM.

Turning to `O=C(C1CC(C(F)(F)F)Cc2nn(Cc3ncc(Cl)cc3F)c(=O)n21)N1CC[C@H](F)C1` (mixture of isomers) [Example 264, (5RS,7RS)-2-[(5-Chloro-3-fluoropyridin-3-yl)methyl]-5-{[(3S)-3-fluoropyrrolidin-1-yl]carbonyl}-7-(trifluoromethyl)-5,6,7,8-tetrahydro[1,2,4]triazolo[4,3-a]pyridin-3(2H)-one], the IC50 is 2.55 nM.

Regarding `O=C(C1CC(C(F)(F)F)Cc2nn(Cc3ncc(Cl)cc3F)c(=O)n21)N1C[C@@H](F)[C@@H](F)C1` (mixture of isomers) [Example 266, (5RS,7RS)-2-[(5-Chloro-3-fluoropyridin-3-yl)methyl]-5-{[(3R,4S)-3,4-difluoropyrrolidin-1-yl]carbonyl}-7-(trifluoromethyl)-5,6,7,8-tetrahydro[1,2,4]triazolo[4,3-a]pyridin-3(2H)-one], the half-maximal inhibitory concentration (IC50) was 5.1 nM.

For the molecule `O=C(C1CCC(C(F)(F)F)c2nn(Cc3ccc(C(F)(F)F)nc3)c(=O)n21)N1C[C@@H](F)[C@@H](F)C1` (mixture of isomers) [Example 270, (5RS,8RS)-5-{[(3R,4S)-3,4-Difluoropyrrolidin-1-yl]carbonyl}-8-(trifluoromethyl)-2-{[6-(trifluoromethyl)pyridin-3-yl]methyl}-5,6,7,8-tetrahydro[1,2,4]triazolo[4,3-a]pyridin-3(2H)-one], the IC50 turned out to be 2 nM.

For the molecule `O=C(C1CCC(C(F)(F)F)c2nn(Cc3ccc(C(F)(F)F)nc3)c(=O)n21)N1CC[C@H](F)C1` (mixture of isomers) [Example 271, (5RS,8RS)-5-{[(3S)-3-Fluoropyrrolidin-1-yl]carbonyl}-8-(trifluoromethyl)-2-{[6-(trifluoromethyl)pyridin-3-yl]methyl}-5,6,7,8-tetrahydro[1,2,4]triazolo[4,3-a]pyridin-3(2H)-one], the IC50 was determined as 1.1 nM.

`O=C(C1CCC(C(F)(F)F)c2nn(Cc3ncccc3F)c(=O)n21)N1CC[C@H](F)C1` (mixture of isomers) [Example 273, (5RS,8RS)-2-[(3-Fluoropyridin-2-yl)methyl]-5-{[(3S)-3-fluoropyrrolidin-1-yl]carbonyl}-8-(trifluoromethyl)-5,6,7,8-tetrahydro[1,2,4]triazolo[4,3-a]pyridin-3(2H)-one]: the IC50 turned out to be 7.6 nM.

For `O=C(C1CCC(C(F)(F)F)c2nn(Cc3ncccc3F)c(=O)n21)N1C[C@@H](F)[C@@H](F)C1` (mixture of isomers) [Example 274, (5RS,8RS)-5-{[(3R,4S)-3,4-Difluoropyrrolidin-1-yl]carbonyl}-2-[(3-fluoropyridin-2-yl)methyl]-8-(trifluoromethyl)-5,6,7,8-tetrahydro[1,2,4]triazolo[4,3-a]pyridin-3(2H)-one], the IC50 was found to be 5.9 nM.

Consider `O=C(C1C(C(F)(F)F)CCc2nn(Cc3ccnc(C(F)(F)F)c3F)c(=O)n21)N1CC[C@H](F)C1` (mixture of isomers) [Example 280, (5RS,6RS)-5-{[(3S)-3-Fluoropyrrolidin-1-yl]carbonyl}-2-{[3-fluoro-2-(trifluoromethyl)pyridin-4-yl]methyl}-6-(trifluoromethyl)-5,6,7,8-tetrahydro[1,2,4]triazolo[4,3-a]pyridin-3(2H)-one], for which the IC50 came out at 3.8 nM.

Take `O=C(C1C(C(F)(F)F)CCc2nn(Cc3ncc(Cl)cc3Cl)c(=O)n21)N1CC[C@H](F)C1` (mixture of isomers) [Example 282, (5RS,6RS)-2-[(3,5-Dichloropyridin-2-yl)methyl]-5-{[(3S)-3-fluoropyrrolidin-1-yl]carbonyl}-6-(trifluoromethyl)-5,6,7,8-tetrahydro[1,2,4]triazolo[4,3-a]pyridin-3(2H)-one]: the IC50 is 15 nM.

In the case of `O=C(C1C(C(F)(F)F)CCc2nn(Cc3ccc(C(F)(F)F)nc3)c(=O)n21)N1CC[C@H](F)C1` (mixture of isomers) [Example 284, (5RS,6RS)-5-{[(3S)-3-Fluoropyrrolidin-1-yl]carbonyl}-6-(trifluoromethyl)-2-{[6-(trifluoromethyl)pyridin-3-yl]methyl}-5,6,7,8-tetrahydro[1,2,4]triazolo[4,3-a]pyridin-3(2H)-one], the IC50 was determined as 3 nM.

As to `O=C(C1C(C(F)(F)F)CCc2nn(Cc3ncc(Cl)cc3Cl)c(=O)n21)N1C[C@@H](F)[C@@H](F)C1` (mixture of isomers) [Example 287, (5RS,6RS)-2-[(3,5-Dichloropyridin-2-yl)methyl]-5-{[(3R,4S)-3,4-difluoropyrrolidin-1-yl]carbonyl}-6-(trifluoromethyl)-5,6,7,8-tetrahydro[1,2,4]triazolo[4,3-a]pyridin-3(2H)-one], the IC50 came out at 23 nM.

For the molecule `O=C(C1C(C(F)(F)F)CCc2nn(Cc3ncc(Cl)cc3Cl)c(=O)n21)N1CCC(F)(F)C1` (racemic) [Example 289, (5RS,6RS)-2-[(3,5-Dichloropyridin-2-yl)methyl]-5-[(3,3-difluoropyrrolidin-1-yl)carbonyl]-6-(trifluoromethyl)-5,6,7,8-tetrahydro[1,2,4]triazolo[4,3-a]pyridin-3(2H)-one], the IC50 is 117 nM.

As to `O=C(C1C(C(F)(F)F)CCc2nn(Cc3ncc(Cl)cc3F)c(=O)n21)N1C[C@@H](F)[C@@H](F)C1` (mixture of isomers) [Example 291, (5RS,6RS)-2-[(5-Chloro-3-fluoropyridin-2-yl)methyl]-5-{[(3R,4S)-3,4-difluoropyrrolidin-1-yl]carbonyl}-6-(trifluoromethyl)-5,6,7,8-tetrahydro[1,2,4]triazolo[4,3-a]pyridin-3(2H)-one], the IC50 came out at 96.5 nM.

With `O=C(C1C(C(F)(F)F)CCc2nn(Cc3ncc(Cl)cc3F)c(=O)n21)N1CC[C@H](F)C1` (mixture of isomers) [Example 294, (5RS,6RS)-2-[(5-Chloro-3-fluoropyridin-2-yl)methyl]-5-{[(3S)-3-fluoropyrrolidin-1-yl]carbonyl}-6-(trifluoromethyl)-5,6,7,8-tetrahydro[1,2,4]triazolo[4,3-a]pyridin-3(2H)-one], the IC50 stood at 20 nM.

As for `O=C(C1C(C(F)(F)F)CCc2nn(Cc3ncc(Cl)cc3F)c(=O)n21)N1CCC(F)(F)C1` (racemic) [Example 296, (5RS,6RS)-2-[(5-Chloro-3-fluoropyridin-2-yl)methyl]-5-[(3,3-difluoropyrrolidin-1-yl)carbonyl]-6-(trifluoromethyl)-5,6,7,8-tetrahydro[1,2,4]triazolo[4,3-a]pyridin-3(2H)-one], the IC50 amounted to 180 nM.

These data come from patent publication US10722501B2 (BAYER AKTIENGESELLSCHAFT, priority 2016, dated 2020).
